Laboratory results from PubChem BioAssay (NCI).
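Method: 48-hour compound exposure of cells in 96-well plates, five concentrations, linear interpolation of endpoints. At the GI50, growth is halved. TGI is the concentration that stops growth completely.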

Experiments:
Experiment in all cases: NCI-60 cell line screen, 48 h
[1] = test system: A498 renal
[2] = test system: ACHN renal
[3] = test system: CAKI-1 renal
[4] = test system: CCRF-CEM leukemia
[5] = test system: COLO 205 colon
[6] = test system: HCT-15 colon
[7] = test system: KM12 colon
[8] = test system: MALME-3M melanoma
[9] = test system: MCF7 breast
[10] = test system: UACC-257 melanoma

SMILES | GI50 [1] [µM] | TGI [1] [µM] | GI50 [2] [µM] | TGI [2] [µM] | GI50 [3] [µM] | TGI [3] [µM] | GI50 [4] [µM] | TGI [4] [µM] | GI50 [5] [µM] | TGI [5] [µM] | GI50 [6] [µM] | TGI [6] [µM] | GI50 [7] [µM] | TGI [7] [µM] | GI50 [8] [µM] | TGI [8] [µM] | GI50 [9] [µM] | TGI [9] [µM] | GI50 [10] [µM] | TGI [10] [µM]
O=C(Nc1cccc(-n2ccc3c(NC(=O)c4ccccc4)nccc32)c1)Nc1cc(C(F)(F)F)cc(C(F)(F)F)c1 | 1.53 | > 50 | 1.48 | 7.61 | 1.53 | 4.32 | 1.76 | > 50 | 1.68 | 5.29 | 1.07 | 33.2 | 1.53 | 4.7 | 3.09 | 35.8 | 1.65 | > 50 | 2.45 | 15.2
CCSc1sc(=Nc2ccc(N=c3sc(C)c(SC)s3)cc2)sc1-c1ccc(C)cc1 | – | > 100 | – | > 100 | – | > 100 | – | > 100 | – | > 100 | – | > 100 | – | > 100 | – | > 100 | – | > 100 | – | > 100
CCCN(CCCC(NC(C)=O)C(=O)NCc1ccccc1)C(=O)N(CCCl)N=O (stereo not given) | – | 31.1 | – | 37.5 | – | 62.4 | – | 76.8 | – | 42.6 | – | 42.5 | – | 42.3 | – | 39.7 | – | > 100 | – | 47.6
O=S(=O)(O)c1cc(O)c2c(N=Cc3ccccc3O)cc(S(=O)(=O)O)cc2c1 | – | > 100 | – | > 100 | – | > 100 | – | > 100 | – | > 100 | – | > 100 | – | > 100 | – | > 100 | – | > 100 | – | > 100
